{"source": "paper PMC6030159", "about": "(Scientific Reports, 2018)", "key": {"endogenous MYC:MAX": {"system": "T1, endogenous MYC:MAX", "T1 construct": "endogenous in cells; host or cells: MDA-MB231", "experiment": "Coimmunoprecipitation of MAX with MYC, MDA-MB231 cells", "format": "cell-based", "settings": "5 μM, 3 hours post treatment", "method": "These assays were performed essentially as described in[67],[68]. For further information on immunohistochemistry, and on primers and antibodies, see Supplementary Information."}, "MAX:MAX": {"system": "MAX:MAX", "experiment": "MST MAX:MAX", "format": "binding", "settings": "labeled MAX pre-mixed with 1 µM unlabeled MAX"}, "YFP": {"system": "YFP", "experiment": "SPR binding to YFP", "settings": "data not shown"}, "MYCN and MAX proteins": {"system": "MYCN and MAX proteins", "experiment": "Western blot of MYCN and MAX in SK-N-DZ and Kelly cells", "format": "cell-based", "settings": "2.5 µM, 17 hours", "method": "These assays were performed essentially as described in[67],[68]. […] C) MST of labeled MYC (approximately 200 nM) titrated with MYCMI-6 as indicated. Data are shown as mean ± standard deviation of 5 biological repeats. Supplemental Figure S5. Characterization of the binding of MYCMI-6 and other MYC:MAX inhibitory compounds on MYC and different control proteins by surface plasmon resonance (SPR). All sensorgrams are reference surface subtracted. A) SPR assay of MYCMI-6 injected over immobilized MYC in an equilibrium binding experiment where the theoretical Rmax is 23 RU. B) SPR assay of KJ-Pyr-9 injected over immobilized MYC. Theoretical Rmax is 29 RU. C) Sensorgram of MAX SPR assay. MYCMI-6 was injected at various concentrations over immobilized MAX bHLHZip (theoretical Rmax of 24 RU). D) Sensorgram of MAD SPR assay. MYCMI-6 was injected at various concentrations over immobilized GST-MAD bHLHZip (theoretical Rmax of 24 RU). E) Sensorgram of the BCL-XL SPR assay. MYCMI-6 was injected at various concentrations over immobilized BCL-XL (theoretical Rmax of 14 RU). F) Sensorgram of the BSA SPR assay. MYCMI-6 was injected at various concentrations over immobilized BSA (theoretical Rmax of 5 RU). Supplemental Figure S6. Expression of MYCN and MAX proteins after MYCMI-6 treatment in MYCN-amplified neuroblastoma cells. […]"}, "[1]": {"system": "HO15.19 (MYC knockout) Rat1 fibroblasts", "experiment": "WST-1 growth assay, HO15.19 (MYC knockout) Rat1 fibroblasts", "format": "cell-based, rat", "method": "Cell proliferation assays. Cell growth and viability was estimated in triplicates with WST-1\n(Roche) or Resazurin sodium salt (Sigma-Aldrich) assays in medium at 37°C and 5% CO 2 for\n2 hours after which absorbance or fluorescence, respectively, was measured with an Omega\nFluostar (BMG Labtech) in a 96 well plate format. […]\n(§1) 0.7% agarose. […]"}, "[2]": {"system": "normal IMR-90 and BJ human fibroblasts", "experiment": "Viable/dead cell counting, normal fibroblasts", "format": "cell-based", "settings": "12.5 μM, 24 hours", "method": "Triton-X-114 (Sigma). Truncated p53 core protein was a kind gift from Klas Wiman, CCK, […]\nCell proliferation assays. Cell growth and viability was estimated in triplicates with WST-1 (Roche) or Resazurin sodium salt (Sigma-Aldrich) assays in medium at 37°C and 5% CO 2 for 2 hours after which absorbance or fluorescence, respectively, was measured with an Omega Fluostar (BMG Labtech) in a 96 well plate format. Cell counting was done in 96 well plates with CellTracker Green (ThermoFisher) for 30 min in the incubator, after which DAPI was added for 5 min. Images were taken in the green (FITC) and blue (DAPI) channels using a fluorescence microscope (ImageXpress Micro, Molecular Devices). […] After 16 days, the colonies were stained with 100 µg/ml MTT (Sigma) overnight and colonies were counted.\nImmunohistochemistry. Apoptosis was visualized at the single-cell level on tumor cryosections using the TUNEL method using the In Situ Cell Death Detection Fluorescein-Roche kit and analyzed by fluorescence microscopy. […] Cell proliferation and microvascular density (MVD) were evaluated through Ki67 and CD31staining, respectively, on tumor cryosections and detected by immunofluoresence. […] For quantification, areas with positive TUNEL and Ki67 staining were measured using Image J software. For the analysis of MVD, the number of vessel structures per microscopic field was calculated."}, "[3]": {"system": "MYCN-amplified SK-N-DZ neuroblastoma cells", "experiment": "Viable/dead cell counting, SK-N-DZ", "format": "cell-based, human", "settings": "12.5 μM, 24 hours", "method": "Cell proliferation assays. […]\nFluostar (BMG Labtech) in a 96 well plate format. Cell counting was done in 96 well plates with CellTracker Green (ThermoFisher) for 30 min in the incubator, after which DAPI was added for 5 min. Images were taken in the green (FITC) and blue (DAPI) channels using a fluorescence microscope (ImageXpress Micro, Molecular Devices). […]\nas §1"}, "hTERT": {"system": "hTERT", "parameters": "method as in PMID 23173022", "settings": "found artificial, unspecific DNA binding; cited from earlier work"}, "[4]": {"biological_target": "S-adenosylmethionine decarboxylase (AdoMetDC)", "parameters": "method as in PMID 17676832", "settings": "cited from earlier work"}, "lung tumor": {"system": "lung tumor", "parameters": "method as in PMID 23824742", "settings": "cited from earlier work"}}, "note": "“Also recorded” adds a separate entry of the source."}
{"molecule": "CCOc1ccc2nc3cc(/N=N/c4ccc(N)nc4N)ccc3c(N)c2c1", "note": "[MYCMI-6]", "values": [{"measurement": "coimmunoprecipitation of endogenous MYC:MAX", "setting": "endogenous MYC:MAX", "value": "reduced the MYC:MAX protein interaction"}, {"measurement": "effect on MAX:MAX (MST)", "setting": "MAX:MAX", "value": "minor effects; also recorded: did not inhibit MAX:MAX homodimerization"}, {"measurement": "binding to YFP (SPR)", "setting": "YFP", "value": "negligible"}, {"measurement": "expression of MYCN and MAX (western blot)", "setting": "MYCN and MAX proteins", "value": "maintaining the expression"}, {"measurement": "growth of MYC null (HO15.19) cells", "setting": "[1]", "value": "did not significantly affect growth"}, {"measurement": "number of viable cells and percentage of dead cells, normal fibroblasts", "setting": "[2]", "value": "only marginal effects; also recorded: not cytotoxic"}, {"measurement": "cell death and cell number, SK-N-DZ", "setting": "[3]", "value": "dramatically increased cell death and reduced cell number; also recorded: killed almost 100%"}, {"measurement": "IC50 for hTERT relative to MYC:MAX in vitro", "setting": "hTERT", "value": "approximately 10 fold"}, {"measurement": "IC50 for AdoMetDC relative to MYC:MAX in vitro", "setting": "[4]", "value": "approximately 10 fold"}, {"measurement": "lung tumor growth in mouse xenograft model", "setting": "lung tumor", "value": "inhibit lung tumor growth"}]}
